From patent US4175081A, “5-Substituted thiadiazole ureas” (priority 1977, dated 1979)

How the values were obtained:
[1] = test system: Johnson grass (JG); assay: Pre-emergence herbicide test; assay type: in vivo, Sorgum helepense; details: Sorghum halepense, 336 h, two weeks after treatment
Method in brief: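 Pots seeded one day before spraying; compound applied pre-emergence at 8 lbs/acre (or 4 lbs/acre) in 38 gallons/acre spray volume. Sub-irrigated in greenhouse; injury/control rated visually two weeks after treatment.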

[2] = test system: Turnip (TP); assay: Post-emergence herbicide test; assay type: in vivo, Brassica sp.; details: Brassica rapa, post-emergence, 336 h, two weeks after treatment
Method in brief: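 A greenhouse post-emergence herbicide test on turnip. Seeds were sown on the surface of potting soil in 3' plastic pots, lightly covered with screened soil and watered from below. Planting was timed so seedlings had 1 or 2 true leaves above the cotyledons at spraying, done in a hood with a fixed nozzle. Control or injury was scored by eye after two weeks.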

[3] = test system: Amaranth pigweed (PW); assay: Pre-emergence herbicide test; assay type: in vivo, Amaranthus retroflexus; details: 336 h, two weeks after treatment
Experimental: All crop and weed species were planted individually in 3' plastic pots containing potting soil. Four seeds each of corn, cotton, and snapbeans were seeded to a depth equal to the diameter of the seed. All other species were surface seeded and sprinkled with screened soil in an amount sufficient to cover the seed. Immediately after planting, all pots were watered by sub-irrigation in greenhouse trays. Pots for the pre-emergence phase were seeded one day before treatment.
Compounds were tested at rates of application equivalent to 8 lbs. of actual compound per acre in a spray volume of 38 gallons per acre. Spray hood constants required to deliver the above volume are as follows:
Formulations for spray applications were prepared in 50 ml volumes with the following three components:
Formulations for the 4 lbs/acre rate were prepared by adjusting the amount of active ingredient accordingly.
Spray applications were made in a hood containing a removable belt and fixed spray nozzle. For passage through the spray hood, one pot of each specie (pre-emergence phase) was placed on the rear half of the flat. Treatments were removed to the greenhouse after spraying. Watering during the observation period was done only by sub-irrigation.
Two weeks after treatment, pre- and post-emergence injury or control was visually rated, and the results were as shown in the following tables. Pre-emergence data are provided in TABLE III and post-emergence data are provided in TABLE IV, for compounds having the formula illustrated in TABLE I. Correspondingly, pre-emergence and post-emergence data, respectively, are set forth in TABLES V AND VI, for compounds having the formula illustrated in TABLE II.

[4] = test system: Turnip (TP); assay: Pre-emergence herbicide test; assay type: in vivo, Brassica sp.; details: Brassica rapa, pre-emergence, 336 h, two weeks after treatment
Method in brief: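 Turnip (Brassica sp.) seeds were surface sown in 3' plastic pots of potting soil, covered with a thin layer of screened soil, and sub-irrigated in greenhouse trays. Pots were seeded one day ahead of treatment, sprayed pre-emergence under a hood with a fixed nozzle and moving belt, then kept in the greenhouse.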

[5] = test system: Bean (BN); assay: Post-emergence herbicide test; assay type: in vivo, Phaseolus vulgaris var. Black Valentine; details: Phaseolus vulgaris, post-emergence, 336 h, two weeks after treatment
Method in brief: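 Snapbean (Phaseolus vulgaris var. Black Valentine) was tested post-emergence. Four seeds were sown in 3' plastic pots of potting soil at a depth equal to the seed diameter, then sub-irrigated in greenhouse trays. Planting dates were staggered so plants were sprayed once primary leaves had expanded, with the growing point at the primary leaf nodes.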

[6] = test system: Corn (CN); assay: Pre-emergence herbicide test; assay type: in vivo; details: Zea mays, 336 h, two weeks after treatment
Method in brief: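 Four corn seeds per pot, sown at seed-diameter depth one day before spraying, got soil surface treatment at 8 lbs/acre (4 lbs/acre formulations also prepared) in 38 gallons/acre. Pots were greenhouse-held with sub-irrigation only. Injury or control was scored visually two weeks after treatment.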

[7] = test system: Cotton (CT); assay: Pre-emergence herbicide test; assay type: in vivo, Gossypium hirsutum var. DPL smooth leaf; details: Gossypium hirsutum, 336 h, two weeks after treatment
Method in brief: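 Crop and weed species seeded one day before treatment, then sprayed pre-emergence at 8 lbs actual compound per acre (also 4 lbs/acre formulations) in 38 gallons per acre. Pots kept in greenhouse with sub-irrigation only; injury or control visually rated two weeks after treatment.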

[8] = test system: Crabgrass (CG); assay: Post-emergence herbicide test; assay type: in vivo, Digitaria sanquinalis; details: Digitaria sanguinalis, post-emergence, 336 h, two weeks after treatment
Method in brief: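 Crabgrass (Digitaria sanquinalis) was surface seeded individually in 3' plastic pots of potting soil, covered with screened soil, and watered by sub-irrigation in greenhouse trays. Planting was staggered so seedlings reached the target stage together. Post-emergence sprays were applied in a hood with a removable belt and fixed nozzle, and control was visually rated two weeks after treatment.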

[9] = test system: Bean (BN); assay: Pre-emergence herbicide test; assay type: in vivo, Phaseolus vulgaris var. Black Valentine; details: Phaseolus vulgaris, 336 h, two weeks after treatment
Method in brief: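 Black Valentine bean was seeded in potting soil one day before spraying. Compound was applied pre-emergence at 8 lbs/acre (also 4 lbs/acre) in 38 gallons per acre. Plants were sub-irrigated and injury or control was rated visually after two weeks.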

[10] = test system: Cotton (CT); assay: Post-emergence herbicide test; assay type: in vivo, Gossypium hirsutum var. DPL smooth leaf; details: Gossypium hirsutum, post-emergence, 336 h, two weeks after treatment
Method in brief: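 Cotton (Gossypium hirsutum var. DPL smooth leaf) was grown in 3' plastic pots of potting soil, four seeds per pot, planted at a depth equal to the seed diameter and watered by sub-irrigation. At the stage of expanded cotyledons with the first true leaf 1' long, plants were sprayed post-emergence in a hood with a fixed nozzle over a moving belt. Percent control was rated visually two weeks later.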

[11] = test system: Crabgrass (CG); assay: Pre-emergence herbicide test; assay type: in vivo, Digitaria sanquinalis; details: Digitaria sanguinalis, pre-emergence, 336 h, two weeks after treatment
Method in brief: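 Crabgrass (Digitaria sanquinalis) was surface seeded in 3' plastic pots of potting soil, covered with screened soil, and watered by sub-irrigation in greenhouse trays. Pots were seeded one day before spraying in a hood with a moving belt and fixed nozzle. Plants stayed in the greenhouse on sub-irrigation, and pre-emergence control was rated visually two weeks after treatment.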

[12] = test system: Barnyard grass (BG); assay: Pre-emergence herbicide test; assay type: in vivo; details: Echinochloa crus-galli, 336 h, two weeks after treatment
Method in brief: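 Barnyard grass surface-seeded in potting soil and sprayed pre-emergence one day after seeding, at 8 or 4 lb compound/acre in 38 gal/acre spray volume. Pots kept in greenhouse with sub-irrigation only; injury or control rated visually two weeks after treatment.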

Structure (SMILES): CCCCSc1nnc(N(C)C(=O)NC)s1 [Example 90]
- pest or weed control at 560.425 g/ha ([1]; 0.5 lb/acre): 10%
- pest or weed control at 1120.85 g/ha ([1]; 1 lb/acre): 10%
- pest or weed control at 2241.7 g/ha ([1]; 2 lb/acre): 50%
- pest or weed control at 4483.4 g/ha ([1]; 4 lb/acre): 50%
- pest or weed control at 560.425 g/ha ([2]; 0.5 lb/acre): 90%
- pest or weed control at 1120.85 g/ha ([2]; 1 lb/acre): 100%
- pest or weed control at 2241.7 g/ha ([2]; 2 lb/acre): 100%
- pest or weed control at 4483.4 g/ha ([2]; 4 lb/acre): 100%
- pest or weed control at 560.425 g/ha ([3]; 0.5 lb/acre): 10%
- pest or weed control at 1120.85 g/ha ([3]; 1 lb/acre): 30%
- pest or weed control at 2241.7 g/ha ([3]; 2 lb/acre): 100%
- pest or weed control at 4483.4 g/ha ([3]; 4 lb/acre): 100%
- pest or weed control at 560.425 g/ha ([4]; 0.5 lb/acre): 10%
- pest or weed control at 1120.85 g/ha ([4]; 1 lb/acre): 10%
- pest or weed control at 2241.7 g/ha ([4]; 2 lb/acre): 60%
- pest or weed control at 4483.4 g/ha ([4]; 4 lb/acre): 80%
- pest or weed control at 560.425 g/ha ([5]; 0.5 lb/acre): 90%
- pest or weed control at 1120.85 g/ha ([5]; 1 lb/acre): 100%
- pest or weed control at 2241.7 g/ha ([5]; 2 lb/acre): 100%
- pest or weed control at 4483.4 g/ha ([5]; 4 lb/acre): 100%
- pest or weed control at 560.425 g/ha ([6]; 0.5 lb/acre): 10%
- pest or weed control at 1120.85 g/ha ([6]; 1 lb/acre): 10%
- pest or weed control at 2241.7 g/ha ([6]; 2 lb/acre): 10%
- pest or weed control at 4483.4 g/ha ([6]; 4 lb/acre): 30%
- pest or weed control at 560.425 g/ha ([7]; 0.5 lb/acre): 10%
- pest or weed control at 1120.85 g/ha ([7]; 1 lb/acre): 10%
- pest or weed control at 2241.7 g/ha ([7]; 2 lb/acre): 30%
- pest or weed control at 4483.4 g/ha ([7]; 4 lb/acre): 50%
- pest or weed control at 560.425 g/ha ([8]; 0.5 lb/acre): 30%
- pest or weed control at 1120.85 g/ha ([8]; 1 lb/acre): 60%
- pest or weed control ([8]; 2 lb/acre): 90%
- pest or weed control at 4483.4 g/ha ([8]; 4 lb/acre): 90%
- pest or weed control at 560.425 g/ha ([9]; 0.5 lb/acre): 10%
- pest or weed control at 1120.85 g/ha ([9]; 1 lb/acre): 10%
- pest or weed control at 2241.7 g/ha ([9]; 2 lb/acre): 40%
- pest or weed control at 4483.4 g/ha ([9]; 4 lb/acre): 70%
- pest or weed control at 560.425 g/ha ([10]; 0.5 lb/acre): 100%
- pest or weed control at 1120.85 g/ha ([10]; 1 lb/acre): 100%
- pest or weed control at 2241.7 g/ha ([10]; 2 lb/acre): 100%
- pest or weed control at 4483.4 g/ha ([10]; 4 lb/acre): 100%
- pest or weed control at 560.425 g/ha ([11]; 0.5 lb/acre): 10%
- pest or weed control at 1120.85 g/ha ([11]; 1 lb/acre): 10%
- pest or weed control at 2241.7 g/ha ([11]; 2 lb/acre): 90%
- pest or weed control at 4483.4 g/ha ([11]; 4 lb/acre): 90%
- pest or weed control at 560.425 g/ha ([12]; 0.5 lb/acre): 10%
- pest or weed control at 1120.85 g/ha ([12]; 1 lb/acre): 10%
- pest or weed control at 2241.7 g/ha ([12]; 2 lb/acre): 90%
- pest or weed control at 4483.4 g/ha ([12]; 4 lb/acre): 90%
